Results: patent US6743443B1, “Tablets immediately disintegrating in the oral cavity” (Eisai Co., Ltd., priority 1998, dated 2004)

Test: physchem
Settings: 37 °C
From the text: However, there has been no report yet for an intraoral quickly disintegrating tablet containing a slightly soluble pharmaceutical agent having an improved solubility as such and for a method of manufacturing the tablet. One of the reasons therefor is that it is difficult for satisfying all of the requirements for improving the solubility of the slightly soluble pharmaceutical agent, for a quick disintegration in the mouth and for ensuring a good touch on the tongue upon disintegration. Many of the pharmaceutical ingredients acting as a cyclic GMP phosphodiesterase inhibitor are the compounds having a relatively low solubility and are within a category of the slightly soluble pharmaceutical agents.

Molecule `COc1ccc(CNc2nnc(N3CCC(O)CC3)c3ccc(C#N)cc23)cc1Cl.Cl` [formula (IX), 4-(3-chloro-4-methoxybenzyl)amino-6-cyano-1-(4-hydroxypiperidino)phthalazine hydrochloride] has a solubility (pH 1.2, simulated gastric fluid) of 130 µg/mL and a solubility (pH 6.8, aqueous buffer) of 6.3 µg/mL.
